From patent publication US20150290260A1, “METHODS OF USE FOR PROBIOTICS AND PREBIOTICS” (Mead Johnson Nutrition Company, priority 2014, published 2015)

Legend:
[1] = tested on: neurotransmitters (biogenic monoamines) in the brain; test: Neurotransmitter levels in the brain by HPLC, neonatal zymosan visceral hyperalgesia rats; type: in vivo; conditions: brain stem, vs non-LGG treated rats, LGG P21-P60, FIG. 6A
From the text: This example describes the effect of LGG on the neurotransmitter levels in the brain. Briefly, chronic visceral hyperalgesia was induced in rats by administration of intracolonic zymosan (or normal saline for control) for three consecutive days during postnatal day 14-16 (P14-P16). LGG treatment was initiated after weaning (P21) and continued until P60. The levels of neurotransmitters and amino acids were quantified in the frontal cortex, sub-cortex, brain stem and cerebellum.
The quantitative assessment of neurotransmitters was conducted using HPLC-based separation followed by fluorescent and/or electrochemical detection. Briefly, brain sections were homogenized, using a tissue dismembrator, in 100-750 ul of 0.1 M TCA, which contains 10-2 M sodium acetate, 10^-4 M EDTA, 5 ng/ml isoproterenol (as internal standard) and 10.5% methanol (pH 3.8). Samples were spun in a microcentrifuge at 10000 g for 20 minutes. Samples of the supernatant were then analyzed for neurotransmitters (biogenic monoamines). Biogenic amines were determined by a specific HPLC assay utilizing an Antec Decade II (oxidation: 0.4) (3 mm GC WE, HYREF) electrochemical detector operated at 33° C. Twenty I samples of the supernatant were injected using a Water 2707 autosampler onto a Phenomenex Kintex (2.6u, 100 Å) C18 HPLC column (100×4.60 mm). Biogenic amines were eluted with a mobile phase consisting of 89.5% 0.1 M TCA, 10-2 M sodium acetate, 10^-4 M EDTA and 10.5% methanol (pH 3.8). Solvent was delivered at 0.6 ml/min using a Waters 515 HPLC pump. Using this HPLC solvent the following biogenic amines eluted in the following order: noradrenaline, Adrenaline, DOPAC, Dopamine, 5-HIAA, HVA, 5-HT, and 3-MT. HPLC control and data acquisition were managed by Empower software.

[2] = Viscera-motor response (VMR) to colorectal distension (CRD), rat colonic zymosan-treated hyperalgesia model; type: in vivo, rats
Protocol: Example 3 utilized a rat colonic zymosan-treated hyperalgesia model (i.e. a model of post-inflammatory visceral pain sensitivity). Zymosan was injected into the colon during the neonatal period producing short-term inflammation and subsequent long-term colonic hypersensitivity.
In this experiment, weanling rats were fed a control diet or control diet plus LGG and/or PDX/GOS for 40 days. The VMR to CRD was quantified using electromyographic (EMG) recordings from the external oblique muscle of the abdomen as an objective measure of visceral sensation in all groups. A stimulus-response function to graded CRD was constructed to test the colonic intensity dependent increase in EMG activity change of external oblique muscle.

Substance: Lactobacillus rhamnosus GG [LGG]
- level of 5-hydroxyindoleacetic acid (5-HIAA) [1]: significant increase
- level of noradrenaline (NA) [1]: significant increase
- level of serotonin (5-HT) [1]: significant increase
- visceral hypersensitivity ([2]; neonatal colonic zymosan model): attenuated
- sensitivity to pain (EMG recordings) ([2]; p<0.05 vs Control+Zymosan, n=10, fed 40 days): significantly attenuated
- viscera-motor response (VMR) to CRD ([2]; zymosan-treated rats, FIG. 7): significantly attenuated
